Experimental data taken from ChEMBL document CHEMBL3400015, “Tertiary amides of Salinomycin: A new group of antibacterial agents against Bacillus anthracis and methicillin-resistant Staphylococcus epidermidis” (Bioorg Med Chem Lett, 2015).
In brackets after ≈: the same amount, converted by molar mass.

Key:
Format in all cases: functional
Staphylococcus aureus = experiment: Antimicrobial activity against Staphylococcus aureus ATCC 6538 after 18 hrs by twofold serial broth dilution method; settings: ATCC 6538, 18 h
[1] = test system: Staphylococcus epidermidis; experiment: Antimicrobial activity against Staphylococcus epidermidis ATCC 35984 after 18 hrs by twofold serial broth dilution method; settings: ATCC 35984, 18 h
Escherichia coli [2] = experiment: Antimicrobial activity against Escherichia coli ATCC 10538 after 18 hrs by twofold serial broth dilution method; settings: ATCC 10538, 18 h
Pseudomonas aeruginosa = experiment: Antimicrobial activity against Pseudomonas aeruginosa ATCC 15442 after 18 hrs by twofold serial broth dilution method; settings: ATCC 15442, 18 h
[3] = test system: Staphylococcus epidermidis; experiment: Bactericidal activity against Staphylococcus epidermidis ATCC 12228 after 24 hrs; settings: ATCC 12228, 24 h, read-out: MBC99.9
Escherichia coli [4] = experiment: Bactericidal activity against Escherichia coli ATCC 25922 after 24 hrs; settings: ATCC 25922, 24 h, read-out: MBC99.9
[5] = test system: Staphylococcus epidermidis; experiment: Antimicrobial activity against methicillin-resistant Staphylococcus epidermidis isolate 403/10 after 18 hrs by twofold serial broth dilution method; settings: isolate 403/10, 18 h
[6] = test system: Staphylococcus epidermidis; experiment: Antimicrobial activity against methicillin-resistant Staphylococcus epidermidis isolate 405/10 after 18 hrs by twofold serial broth dilution method; settings: isolate 405/10, 18 h
[7] = test system: Staphylococcus epidermidis; experiment: Antimicrobial activity against methicillin-resistant Staphylococcus epidermidis isolate 455/11 after 18 hrs by twofold serial broth dilution method; settings: isolate 455/11, 18 h
[8] = test system: Staphylococcus epidermidis; experiment: Antimicrobial activity against methicillin-resistant Staphylococcus epidermidis isolate 457/11 after 18 hrs by twofold serial broth dilution method; settings: isolate 457/11, 18 h
[9] = test system: Staphylococcus epidermidis; experiment: Antimicrobial activity against methicillin-resistant Staphylococcus epidermidis isolate 460/11 after 18 hrs by twofold serial broth dilution method; settings: isolate 460/11, 18 h
[10] = test system: Staphylococcus epidermidis; experiment: Bactericidal activity against methicillin-resistant Staphylococcus epidermidis isolate 403/10 after 24 hrs; settings: isolate 403/10, 24 h, read-out: MBC99.9
[11] = test system: Staphylococcus epidermidis; experiment: Bactericidal activity against methicillin-resistant Staphylococcus epidermidis isolate 404/10 after 24 hrs; settings: isolate 404/10, 24 h, read-out: MBC99.9
[12] = test system: Staphylococcus epidermidis; experiment: Bactericidal activity against methicillin-resistant Staphylococcus epidermidis isolate 455/11 after 24 hrs; settings: isolate 455/11, 24 h, read-out: MBC99.9
[13] = test system: Staphylococcus epidermidis; experiment: Bactericidal activity against methicillin-resistant Staphylococcus epidermidis isolate 458/11 after 24 hrs; settings: isolate 458/11, 24 h, read-out: MBC99.9
[14] = test system: Staphylococcus epidermidis; experiment: Bactericidal activity against methicillin-resistant Staphylococcus epidermidis isolate 459/11 after 24 hrs; settings: isolate 459/11, 24 h, read-out: MBC99.9
[15] = test system: Staphylococcus epidermidis; experiment: Ratio of ciprofloxacin MIC to compound MIC for methicillin-resistant Staphylococcus epidermidis clinical isolate after 18 hrs by twofold serial broth dilution method

Row | Compound | MIC (Staphylococcus aureus) | MIC [1] | MIC (Escherichia coli [2]) | MIC (Pseudomonas aeruginosa) | MBC [3] | MBC (Escherichia coli [4]) | MIC [5] | MIC [6] | MIC [7] | MIC [8] | MIC [9] | MBC [10] | MBC [11] | MBC [12] | MBC [13] | MBC [14] | Ratio [15]
1 | CC[C@@H](C(=O)[C@@H](C)[C@@H](O)[C@H](C)[C@@H]1O[C@@H]([C@@H](CC)C(=O)N2CCOCC2)CC[C@@H]1C)[C@H]1O[C@]2(C=C[C@@H](O)[C@]3(CC[C@@](C)([C@H]4CC[C@](O)(CC)[C@H](C)O4)O3)O2)[C@H](C)C[C@@H]1C | 128 µg/mL (≈ 156 µM) | 128 µg/mL (≈ 156 µM) | 256 µg/mL (≈ 312 µM) | 256 µg/mL (≈ 312 µM) | > 256 µg/mL | > 256 µg/mL | 256 µg/mL (≈ 312 µM) | 256 µg/mL (≈ 312 µM) | 256 µg/mL (≈ 312 µM) | 256 µg/mL (≈ 312 µM) | 256 µg/mL (≈ 312 µM) | > 256 µg/mL | > 256 µg/mL | > 256 µg/mL | > 256 µg/mL | > 256 µg/mL | –
2 | CC[C@@H](C(=O)[C@@H](C)[C@@H](O)[C@H](C)[C@@H]1O[C@@H]([C@@H](CC)C(=O)N(CC)CC)CC[C@@H]1C)[C@H]1O[C@]2(C=C[C@@H](O)[C@]3(CC[C@@](C)([C@H]4CC[C@](O)(CC)[C@H](C)O4)O3)O2)[C@H](C)C[C@@H]1C | 2 µg/mL (≈ 2.48 µM) | 4 µg/mL (≈ 4.96 µM) | > 256 µg/mL | > 256 µg/mL | 64 µg/mL (≈ 79.4 µM) | > 256 µg/mL | 4 µg/mL (≈ 4.96 µM) | 8 µg/mL (≈ 9.92 µM) | 8 µg/mL (≈ 9.92 µM) | 4 µg/mL (≈ 4.96 µM) | 8 µg/mL (≈ 9.92 µM) | 256 µg/mL (≈ 318 µM) | 256 µg/mL (≈ 318 µM) | 256 µg/mL (≈ 318 µM) | 128 µg/mL (≈ 159 µM) | 256 µg/mL (≈ 318 µM) | 40
3 | CC[C@@H](C(=O)[C@@H](C)[C@@H](O)[C@H](C)[C@@H]1O[C@@H]([C@@H](CC)C(=O)N2CCNCC2)CC[C@@H]1C)[C@H]1O[C@]2(C=C[C@@H](O)[C@]3(CC[C@@](C)([C@H]4CC[C@](O)(CC)[C@H](C)O4)O3)O2)[C@H](C)C[C@@H]1C | 64 µg/mL (≈ 78.1 µM) | 128 µg/mL (≈ 156 µM) | > 256 µg/mL | > 256 µg/mL | > 256 µg/mL | > 256 µg/mL | 128 µg/mL (≈ 156 µM) | 64 µg/mL (≈ 78.1 µM) | 256 µg/mL (≈ 313 µM) | 256 µg/mL (≈ 313 µM) | 128 µg/mL (≈ 156 µM) | > 256 µg/mL | 256 µg/mL (≈ 313 µM) | > 256 µg/mL | > 256 µg/mL | > 256 µg/mL | –
4 | CCCN(CCC)C(=O)[C@H](CC)[C@H]1CC[C@H](C)[C@H]([C@@H](C)[C@H](O)[C@H](C)C(=O)[C@H](CC)[C@H]2O[C@]3(C=C[C@@H](O)[C@]4(CC[C@@](C)([C@H]5CC[C@](O)(CC)[C@H](C)O5)O4)O3)[C@H](C)C[C@@H]2C)O1 | 1 µg/mL (≈ 1.2 µM) | 2 µg/mL (≈ 2.4 µM) | > 256 µg/mL | > 256 µg/mL | 256 µg/mL (≈ 307 µM) | > 256 µg/mL | 4 µg/mL (≈ 4.8 µM) | 8 µg/mL (≈ 9.59 µM) | 8 µg/mL (≈ 9.59 µM) | 8 µg/mL (≈ 9.59 µM) | 8 µg/mL (≈ 9.59 µM) | 128 µg/mL (≈ 153 µM) | 128 µg/mL (≈ 153 µM) | 256 µg/mL (≈ 307 µM) | 256 µg/mL (≈ 307 µM) | 128 µg/mL (≈ 153 µM) | 40
5 | CCCCCCCCN(CCCCCCCC)C(=O)[C@H](CC)[C@H]1CC[C@H](C)[C@H]([C@@H](C)[C@H](O)[C@H](C)C(=O)[C@H](CC)[C@H]2O[C@]3(C=C[C@@H](O)[C@]4(CC[C@@](C)([C@H]5CC[C@](O)(CC)[C@H](C)O5)O4)O3)[C@H](C)C[C@@H]2C)O1 | 128 µg/mL (≈ 131 µM) | 128 µg/mL (≈ 131 µM) | > 256 µg/mL | > 256 µg/mL | > 256 µg/mL | > 256 µg/mL | 256 µg/mL (≈ 263 µM) | > 256 µg/mL | > 256 µg/mL | 256 µg/mL (≈ 263 µM) | 256 µg/mL (≈ 263 µM) | > 256 µg/mL | > 256 µg/mL | > 256 µg/mL | > 256 µg/mL | > 256 µg/mL | –
6 | CC[C@@H](C(=O)[C@@H](C)[C@@H](O)[C@H](C)[C@@H]1O[C@@H]([C@@H](CC)C(=O)N(CCO)CCO)CC[C@@H]1C)[C@H]1O[C@]2(C=C[C@@H](O)[C@]3(CC[C@@](C)([C@H]4CC[C@](O)(CC)[C@H](C)O4)O3)O2)[C@H](C)C[C@@H]1C | 4 µg/mL (≈ 4.77 µM) | 4 µg/mL (≈ 4.77 µM) | > 256 µg/mL | > 256 µg/mL | 256 µg/mL (≈ 305 µM) | > 256 µg/mL | 4 µg/mL (≈ 4.77 µM) | 2 µg/mL (≈ 2.39 µM) | 4 µg/mL (≈ 4.77 µM) | 4 µg/mL (≈ 4.77 µM) | 4 µg/mL (≈ 4.77 µM) | 128 µg/mL (≈ 153 µM) | 256 µg/mL (≈ 305 µM) | 256 µg/mL (≈ 305 µM) | 128 µg/mL (≈ 153 µM) | 256 µg/mL (≈ 305 µM) | 40
7 | CCCCN(CCCC)C(=O)[C@H](CC)[C@H]1CC[C@H](C)[C@H]([C@@H](C)[C@H](O)[C@H](C)C(=O)[C@H](CC)[C@H]2O[C@]3(C=C[C@@H](O)[C@]4(CC[C@@](C)([C@H]5CC[C@](O)(CC)[C@H](C)O5)O4)O3)[C@H](C)C[C@@H]2C)O1 | 8 µg/mL (≈ 9.28 µM) | 8 µg/mL (≈ 9.28 µM) | > 256 µg/mL | > 256 µg/mL | > 256 µg/mL | > 256 µg/mL | 8 µg/mL (≈ 9.28 µM) | 4 µg/mL (≈ 4.64 µM) | 16 µg/mL (≈ 18.6 µM) | 4 µg/mL (≈ 4.64 µM) | 8 µg/mL (≈ 9.28 µM) | 256 µg/mL (≈ 297 µM) | > 256 µg/mL | 256 µg/mL (≈ 297 µM) | 256 µg/mL (≈ 297 µM) | 256 µg/mL (≈ 297 µM) | –
8 | CC[C@@H](C(=O)[C@@H](C)[C@@H](O)[C@H](C)[C@@H]1O[C@@H]([C@@H](CC)C(=O)N(CCOC)CCOC)CC[C@@H]1C)[C@H]1O[C@]2(C=C[C@@H](O)[C@]3(CC[C@@](C)([C@H]4CC[C@](O)(CC)[C@H](C)O4)O3)O2)[C@H](C)C[C@@H]1C | 64 µg/mL (≈ 73.9 µM) | 128 µg/mL (≈ 148 µM) | > 256 µg/mL | > 256 µg/mL | > 256 µg/mL | > 256 µg/mL | 64 µg/mL (≈ 73.9 µM) | 256 µg/mL (≈ 296 µM) | 128 µg/mL (≈ 148 µM) | 128 µg/mL (≈ 148 µM) | 128 µg/mL (≈ 148 µM) | > 256 µg/mL | > 256 µg/mL | > 256 µg/mL | > 256 µg/mL | > 256 µg/mL | –
9 | CC[C@@H](C(=O)[C@@H](C)[C@@H](O)[C@H](C)[C@@H]1O[C@@H]([C@@H](CC)C(=O)N(Cc2ccccc2)Cc2ccccc2)CC[C@@H]1C)[C@H]1O[C@]2(C=C[C@@H](O)[C@]3(CC[C@@](C)([C@H]4CC[C@](O)(CC)[C@H](C)O4)O3)O2)[C@H](C)C[C@@H]1C | 16 µg/mL (≈ 17.2 µM) | 8 µg/mL (≈ 8.6 µM) | > 256 µg/mL | > 256 µg/mL | 256 µg/mL (≈ 275 µM) | > 256 µg/mL | 16 µg/mL (≈ 17.2 µM) | 8 µg/mL (≈ 8.6 µM) | 32 µg/mL (≈ 34.4 µM) | 16 µg/mL (≈ 17.2 µM) | 32 µg/mL (≈ 34.4 µM) | > 256 µg/mL | > 256 µg/mL | 256 µg/mL (≈ 275 µM) | > 256 µg/mL | 256 µg/mL (≈ 275 µM) | –
